In patent US10077268B2, “FXR agonists and methods for making and using” (Salk Institute for Biological Studies, priority 2014, dated 2018):
“Also recorded” adds a separate entry of the source.

Assays:
[1] = test system: gene and protein expression in BAT, ileum, liver and adipose tissues; test: Tissue gene and protein expression in treated DIO mice; format: in vivo
Method: (§1) Mice were fed HFD for 14 weeks and then administered vehicle or fexaramine (100 mg/kg) daily by oral administration for 5 weeks with HFD. Data represent the mean±STD. Statistical analysis was performed with the Student's t test (*p<0.05, **p<0.01).
FIGS. 7A-7H show a comparative expression chart and bar charts illustrating that fexaramine increased endogenous FGF15 signaling and changes in BA composition. Mice were fed HFD for 14 weeks and then administered daily oral injections of vehicle or fexaramine (100 mg/kg) for 5 weeks with HFD. In the bar graphs, open bars represent vehicle treatment and solid bars represent fexaramine treatment, and data represent the mean±STD. Statistical analysis was performed with the Student's t test (*p<0.05, **p<0.01).
Mice were fed on HFD for 14 weeks and subsequently subjected to daily PO injection of vehicle or fexaramine (100 mg/kg) for 5 weeks with HFD. In the bar graphs, open bars are vehicle, solid bars of fexaramine, and data represent the mean±STD. Statistical analysis was performed with the Student's t test (*p<0.05, **p<0.01).
Mice were fed HFD for 14 weeks and then subjected to daily PO injection of vehicle (open bar in bar graphs) or fexaramine (100 mg/kg) (solid bar in bar graphs) for 5 weeks with HFD.

[2] = test system: serum bile acid composition; test: Serum bile acid composition by mass spectrometry; format: in vivo, mice
Method: Mice fed a HFD for 14 weeks were maintained on a HFD and treated with vehicle or fexaramine (100 mg/kg/day per os for 5 week). Serum bile acid composition was determined by mass spectrometry. N.D not determined.

[3] = test system: diet-induced obesity (DIO) mice; test: Chronic oral treatment of diet-induced obesity (DIO) mice; format: in vivo; details: for glucose tolerance and insulin sensitivity (GTT, ITT): DIO mice, PO 5 weeks
Method: FIGS. 2A-2G are graphs illustrating the reduction of diet-induced obesity and improvement in metabolic homeostasis with fexaramine Mice were fed a high fat diet (HFD) for 14 weeks and then administered daily oral injections of vehicle (open boxes) or fexaramine (100 mg/kg) (solid boxes) for 5 weeks with HFD. Data represent the mean±STD. Statistical analysis was performed with the Student's t test (*p<0.05, **p<0.01).
FIG. 4A is a line graph showing the effects of fexaramine at various dosage levels on the body weight of mice fed a HFD for 14 weeks and then administered daily oral injections of vehicle or fexaramine (10, 50 or 100 mg/kg) for 5 weeks with HFD. Data represent the mean±STD. Statistical analysis was performed with the Student's t test (*p<0.05, **p<0.01).
as §1
The physiological effects of fexaramine in established obesity (diet-induced obesity, DIO) models were evaluated. C57BL/6J mice were fed a diet of 60% fat for 14 weeks and then treated PO with vehicle or fexaramine (100 mg/kg) for 5 weeks.

[4] = test system: FXR-null mice; test: HFD-fed FXR-null mice; format: in vivo; details: 100 mg/kg 5 weeks
Method: Data represent the mean±SD. Statistical analysis was performed with the Student's t test. *p<0.05, **p<0.01.

[5] = test system: normal chow-fed mice; test: Chronic oral treatment of normal chow-fed mice; format: in vivo
Method: FIGS. 3A-3D are line graphs and a bar graph showing the effects of fexaramine administration in normal chow-fed mice. The mice were treated with vehicle (left bar) or fexaramine (100 mg/kg) (right bar) via PO for 5 weeks. Data represent the mean±STD. Statistical analysis as performed with the Student's t test (*p<0.05, **p<0.01).
To investigate the physiological effects of intestinal FXR activation by fexaramine, mice were subjected to chronic fexaramine (100 mg/kg Fex) PO treatment for 5 weeks.

[6] = test system: TGR5 null mice; test: HFD-fed TGR5-null mice; format: in vivo; details: 100 mg/kg/day PO 5 weeks
Method: HFD-fed TGR5-null mice were treated with vehicle or fexaramine (100 mg/kg os daily for 5 weeks with HFD, n=10). (A) Ileal FXR target gene expressions (B) Serum BA levels (C) Fasting glucose levels (D) Glucose tolerance test (E) Core body temperature (F) Oxygen consumption rate (G) Carbon dioxide production (H) Gene expression in BAT (I) Body weight curve (J) Body composition by MRI (K) Insulin Tolerance Test (L) Hepatic gene expression (M) Hepatic TG levels (N) and Gene expression in soleus of TGR5 knockout mice with and without fexaramine treatment. For bar graphs, vehicle is left bar, Fex is right bar. Data represent the mean±SD. Statistical analysis was performed with the Student's t test. *p<0.05, **p<0.01.
To address this possibility, HFD-fed TGR5 null mice were chronically treated with Fex (100 mg/kg/day PO for 5 weeks). […] In particular, the anti-lipogenic effects of Fex in the liver appear to require TGR5 activation, as key hepatic lipogenic genes and liver triglyceride content were not affected by Fex treatment (FIGS. 11L, 11M).

COC(=O)/C=C/c1cccc(N(Cc2ccc(-c3ccc(N(C)C)cc3)cc2)C(=O)C2CCCCC2)c1 [fexaramine]
D102, downstream target of TGR5, in brown adipose tissue ([1]; BAT): induce | PKA activity ([1]; BAT): increased PKA activity | expression of ERRy, PGC-1α, PGC-1β and target genes in BAT ([1]; BAT): induction | phosphorylation level of p38 ([1]; BAT): increased the phosphorylation level of p38 | FGF15 expression in intestine ([1]; RNA-Seq, ileal FXR target genes): dramatically up-regulated | OXPHOS activity, transcriptional changes in inguinal, gonadal and brown adipose depots ([1]; RNA-sequencing): selectively enhance OXPHOS activity only in BAT | HSL phosphorylation and serum levels of free fatty acids ([1]; adipose depots, serum): pronounced increase | serum catecholamine levels and β3-adrenergic receptor expression ([1]; chronic treatment): increased serum catecholamine levels and β3-adrenergic receptor expression | S6K phosphorylation (mTORC1 pathway) ([1]; gonadal WAT): reduced S6K phosphorylation | levels of IKK-ε and TANK-binding kinase 1 (TBK1) ([1]; gonadal adipose tissue): reduced levels | expression of brown fat-like signature genes ([1]; inguinal adipose tissue): increased the expression | respiratory capacity in the stromal vascular fraction ([1]; inguinal adipose tissue): increased respiratory capacity | abundance of multi-locular, UCP1-expressing adipocytes ([1]; inguinal adipose tissue, immunohistochemistry): substantial increase | expression of mucosal defense genes Occludin and Muc2 ([1]; intestine): increased expression | expression of CYP8B1 and CYP27A1 ([1]; liver): not affected | expression of liver FXR target genes SHP and BSEP ([1]; liver): not altered | hepatic CYP7A1 expression, mRNA and protein level ([1]; liver): significantly repressed | hepatic expression of gluconeogenic and lipogenic genes ([1]; liver): reduced hepatic expression | circulating FGF15 ([1]; serum): increase in circulating FGF15 | bile acid pool size [2]: reducing the bile acid pool size | fraction of lithocholic acid among circulating bile acids [2]: increasing the fraction of the secondary bile acid, lithocholic acid | fraction of taurocholic acid among circulating bile acids [2]: decreasing the fraction of taurocholic acid | ratio of unconjugated to conjugated cholic acid ([2]; 100 mg/kg PO 5 weeks): remarkably increased | ambulatory counts ([3]; 100 mg/kg PO 5 weeks): more active than control mice | intestinal toxicity (histology of ileum and colon) ([3]; 100 mg/kg PO 5 weeks): no signs of intestinal toxicity | overall fat mass (MRI) ([3]; 100 mg/kg PO 5 weeks): reduced overall fat mass | respiratory exchange ratio ([3]; 100 mg/kg PO 5 weeks): No changes | serum lactate levels ([3]; 100 mg/kg PO 5 weeks): significantly decreased | serum levels of inflammatory cytokines TNFα, IL-1α, IL-1β, IL-17 and MCP-1 ([3]; 100 mg/kg PO 5 weeks): markedly decreased | wet weights of subcutaneous (inguinal) and visceral (gonadal and mesenteric) adipose depots ([3]; 100 mg/kg PO 5 weeks): significant reductions | serum lactate levels ([3]; 100 mg/kg PO 5 weeks, listed as Fex): significantly reduced | prevention of weight gain, dose dependence ([3]; 10, 50 or 100 mg/kg PO 5 weeks): dose-dependent manner | glucose tolerance and insulin sensitivity (GTT, ITT) [3]: improved glucose clearance; also recorded: improved insulin sensitivity | glucose tolerance and insulin sensitivity (GTT, ITT) ([3]; listed as Fex): dose-dependent improvements | weight gain ([3]; HFD 14 weeks, then 100 mg/kg PO 5 weeks): prevented weight gain | cross-sectional area of adipocytes in visceral depots (gonadal, mesenteric) ([3]; chronic treatment): markedly reduced | weight gain at the highest dose ([3]; highest dose): almost completely abrogated | accumulation of lipid vesicles in brown adipose tissue (BAT) ([3]; histology): markedly reduced | hepatic triglycerides ([3]; liver): marked decrease | lipid droplets in liver tissue (histology) ([3]; liver): reduction in lipid droplets | serum alanine aminotransferase (ALT) levels ([3]; serum): decreased | glucose, insulin, leptin, cholesterol and resistin levels ([3]; serum, 100 mg/kg PO 5 weeks): reduced glucose, insulin, leptin, cholesterol, and resistin levels | food intake ([3]; versus vehicle-treated control mice): not attributable to difference in food intake | carbon dioxide production (VCO2) ([3]; weight-matched DIO mice): exhaled more carbon dioxide | oxygen consumption (VO2) ([3]; weight-matched DIO mice): consistently higher oxygen consumption | Fex-induced changes in gene expression and improvements in metabolic homeostasis in FXR null mice [4]: abrogated | glucose homeostasis in normal chow-fed mice ([5]; across a range of doses): no effects observed | weight gain, basal metabolic activity and glucose tolerance ([5]; chow-fed, 100 mg/kg PO 5 weeks): indistinguishable from vehicle-treated mice | FXR target genes in the ileum of TGR5 null mice [6]: induced multiple FXR target genes | core body temperature and metabolic rate in TGR5 null mice [6]: somewhat blunted increases | fasting glucose levels and glucose tolerance in TGR5 null mice [6]: moderate improvements | key hepatic lipogenic genes and liver triglyceride content in TGR5 null mice [6]: not affected | serum BA levels in TGR5 null mice [6]: lowered serum BA levels | weight gain or insulin sensitivity in TGR5 null mice [6]: no significant changes
